Data reported in patent publication US20220280513A1, “ENHANCING THE ANTIVIRAL EFFICACY OF RNA VIRUS INHIBITION BY COMBINATION WITH MODULATORS OF PYRIMIDINE METABOLISM” (The Board of Trustees of the Leland Stanford Junior …, priority 2019, published 2022).

Tested on: DENV-2 virus
Test: Pilot antiviral assay, DENV-Luc replication in A549 cells (FIG. 2)
Assay type: cell-based, dengue serotype 2 (DENV-2) strain 16681
Description: We therefore focused our efforts on evaluating CPU in combination with GSK983. Using an infectious clone of dengue serotype 2 (DENV-2) strain 16681 engineered to express a luciferase reporter, the efficacy and cytotoxicity of combinations of GSK983 and CPU were assessed in infected or uninfected cultures of the A549 lung carcinoma cell line (FIG. 2). […] However, a combination of 0.2 μM GSK and 250 μM CPU inhibited ca. 50% of virus replication.
DENV-Luc reporter virus generation: The design of the pDENV-Luc infectious clone derived from dengue serotype 2 (DENV-2) strain 16681 was described in detail by Marceau et al (Marceau et al., 2016). The plasmid was linearized with Xbal and in vitro transcribed into the genomic RNA of DENV-Luc virus using the T7 Megascript Kit (Ambion) in the presence of m7G(5′)ppp(5′)G RNA Cap Structure Analog (NEB). 5 μg DENV-Luc RNA was electroporated into 2×10^6 Vero cells. The transfected cells were resuspended with Dulbecco's modified Eagle's medium (DMEM; Invitrogen) with 10% FBS and 100 U/ml penicillin-streptomycin and transferred into a T-175 flask incubated at 37° C. with 5% CO2. Supernatants were collected and replenished with fresh medium every 24 h from day 17 to 24 post-transfection, pooled together, clarified by centrifugation and stored in aliquots at −80° C. The amount of infectious DENV-Luc virus in the stock was titrated using the TCID50 assay and calculated by the Spearman & Kärber algorithm as described previously (Hierholzer and Killington, 1996).
Pilot Antiviral Assays (for FIG. 2): A549 cells were plated overnight at 20,000 cells/well in 24-well plates in complete DMEM and incubated for 24 h at 37° C. Cell were then treated with pyrimidine de novo synthesis and/or salvage inhibitors in DMEM supplemented with 20 μM uridine. Four hours after drug addition, cells were infected with DENV-2 virus at a MOI=0.01. After 48 h, DENV-Luc replication was monitored by the production of Renilla luciferase, which was measured using the Renilla-Glo Luciferase Assay System (Promega) according to the specifications of the manufacturer. For the accompanying cell viability assay, A549 cells were seeded into 24-well plates at a density of 20,000 cells/well incubated for 24 h at 37° C. Cell were then treated with pyrimidine de novo synthesis and/or salvage inhibitors in DMEM supplemented with 20 μM uridine. Following 48h treatment, cells were harvested, and the density of viable cells was determined by flow cytometry (FSC/SSC) using a BD Accuri C6 Flow Cytometer.

## O=c1ccn([C@@H]2C=C(CO)[C@@H](O)[C@H]2O)c(=O)[nH]1 [CPU, 1-((1R,4R,5S)-4,5-dihydroxy-3-(hydroxymethyl)cyclopent-2-en-1-yl)pyrimidine-2,4(1H,3H)-dione]
CPU combined with GSK983, exogenous uridine
  decrease of DENV-2 titer, synergy: synergized with GSK983
CPU dose of 1 mM in combination with GSK, 20 μM exogenous uridine
  virus replication: suppressed almost completely
alone, 20 μM exogenous uridine
  inhibition of replication of DENV-2 virus, single agent: neither GSK nor CPU alone inhibited replication
Combination of 0.2 μM GSK and 250 μM CPU, 20 μM exogenous uridine
  inhibition of virus replication: ca. 50%
